A word on the IC50: it is the concentration that gives 50% inhibition. A higher IC50 goes with a need for much substance.

Converted amounts (≈) assume the structure as drawn. Where two headings read alike, the source gives them in different places.

The test system of assay [1] is E. coli Ec113 efflux pump KO. Kind of assay: microbe, parasite or virus in culture. In kind it is cell-based. To be noted: Escherichia coli, read-out: MIC Ec113 efflux pump KO.
Assay [2] has as its system E. coli Ec50 efflux pump KO. Kind of assay: microbe, parasite or virus in culture. In kind it is cell-based. Conditions: Escherichia coli, read-out: MIC Ec50 efflux pump KO.
Assay [3] deals with H. influenza Hi106 ATCC 51907. Put plainly: organism not typed. The format is cell-based. Conditions: read-out: MIC Hi106.
In assay [4] the test system is Methicillin Resistant S. aureus (MRSA). Kind of assay: Neutropenic mouse thigh infection model. Conditions: Thigh Sa.
Assay [5] deals with Methicillin Resistant S. aureus Sa2 (MRSA). Kind of assay: animal or person. In kind it is in vivo. Conditions: for log reduction at 50 mg/kg: 24 h.
Assay [6] concerns H. influenza Hi10 clinical strain. Kind of assay: organism not typed. In kind it is cell-based. Conditions: read-out: MIC Hi10.
For a further assay, the target named is DNA III Polymerase E (Escherichia coli, UniProt P10443). Put plainly: In vitro activity against DNA III Polymerase E, E. coli. In kind it is biochemical. In a few lines:
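Recombinant enzyme (0.47 μg/mL diluted stock) in 20 mM Tris pH7.5, 8 mM DTT, 10 mM MgOAc, 0.05% CHAPS met compound series from 100 μM top, 1/5 steps. Activated calf thymus DNA, dNTPs and [α-33P]-dTTP substrate were added, and incubation ran 120 min at 30° C. IC50 came from filter-captured incorporated radioactivity versus controls.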

Assay [7] relates to S. aureus Sa26 ATCC 25923. Kind of assay: Antibacterial activity assay (MIC), S. aureus Sa26. In kind it is cell-based. Conditions: Staphylococcus aureus.
Assay [8] relates to H. influenza Hi47 clinical strain, Ampicillin Resistant. Kind of assay: organism not typed. To be noted: read-out: MIC Hi47. In kind it is cell-based.
Assay [9] concerns the target DNA Polymerase IIIα (DnaE) from Staphylococcus aureus (Staphylococcus aureus, UniProt Q6GG04). Kind of assay: biochemical.
The next assay relates to S. aureus Sa4 NCTC 6571. Kind of assay: Antibacterial activity assay (MIC), S. aureus Sa4. Conditions: Staphylococcus aureus, NCTC6571; S. aureus Sa4 NCTC 6571, sensitive strain; read-out: MIC Sa4. In kind it is cell-based.
Another assay deals with E. coli Ec1 ATCC 25922. Kind of assay: Antibacterial activity assay (MIC), E. coli Ec1. In kind it is cell-based. To be noted: Escherichia coli, ATCC25922; E. coli Ec1 ATCC 25922, sensitive strain; read-out: MIC Ec1.
In assay [10] the test system is S. aureus Sa2 clinical strain NCIMB 41953, MRSA. Kind of assay: microbe, parasite or virus in culture. In kind it is cell-based. Conditions: Staphylococcus aureus, read-out: MIC Sa2.
In assay [11] the test system is H. influenza Hi3 ATCC 31517. Kind of assay: organism not typed. In kind it is cell-based. To be noted: read-out: MIC Hi3.
A further assay deals with S. aureus Sa1 ATCC 13709. Kind of assay: microbe, parasite or virus in culture. In kind it is cell-based. To be noted: Staphylococcus aureus, ATCC13709; S. aureus Sa1 ATCC 13709, sensitive strain; Mueller-Hinton Broth, 37° C.; read-out: MIC Sa1.
In assay [12] the test system is Methicillin Resistant S. aureus Sa2 (MRSA). In kind it is in vivo. Conditions: Groin Sa, sample time 31 h post infection.
Setting [13] is: Study 9, 50 mg/kg PO BID, sample time 24 h PI.
Where [14] appears, read: Staphylococcus aureus, MRSA, in Mus musculus, po, read-out: Log reduction vs. untreated, Study 3, 50 mg/kg PO BID, sample 24 h post infection, lung.
Where [15] appears, read: Study 3, 50 mg/kg PO BID, sample 24 h post infection, lung.
Where [16] appears, read: ATCC25923, read-out: MIC Sa26 + 10% SH, S. aureus Sa26 + 10% SH.
[17] abbreviates: ATCC25923, read-out: MIC Sa26 + 50% SH, S. aureus Sa26 + 50% SH.
Where [18] appears, read: ATCC25923, S. aureus Sa26 ATCC 25923, sensitive strain, Mueller-Hinton Broth, 37° C., read-out: MIC Sa26.
Where [19] appears, read: Study 1, 50 mg/kg SC BID, sample time 7 h PI.
Where [20] appears, read: Study 2, 50 mg/kg SC BID, sample time 7 h PI.
Setting [21] is: Study 3, 50 mg/kg SC BID, sample time 7 h PI.
The mark [22] stands for this setting: Study 4, 15 mg/kg SC BID, sample time 24 h PI.
The mark [23] stands for this setting: Study 5, 50 mg/kg SC BID, sample time 24 h PI.
Setting [24] is: Study 8, 50 mg/kg SC QD, sample time 48 h PI.

DNA Polymerase IIIα (DnaE) from Staphylococcus aureus, sequence (Q6GG04 1-1022): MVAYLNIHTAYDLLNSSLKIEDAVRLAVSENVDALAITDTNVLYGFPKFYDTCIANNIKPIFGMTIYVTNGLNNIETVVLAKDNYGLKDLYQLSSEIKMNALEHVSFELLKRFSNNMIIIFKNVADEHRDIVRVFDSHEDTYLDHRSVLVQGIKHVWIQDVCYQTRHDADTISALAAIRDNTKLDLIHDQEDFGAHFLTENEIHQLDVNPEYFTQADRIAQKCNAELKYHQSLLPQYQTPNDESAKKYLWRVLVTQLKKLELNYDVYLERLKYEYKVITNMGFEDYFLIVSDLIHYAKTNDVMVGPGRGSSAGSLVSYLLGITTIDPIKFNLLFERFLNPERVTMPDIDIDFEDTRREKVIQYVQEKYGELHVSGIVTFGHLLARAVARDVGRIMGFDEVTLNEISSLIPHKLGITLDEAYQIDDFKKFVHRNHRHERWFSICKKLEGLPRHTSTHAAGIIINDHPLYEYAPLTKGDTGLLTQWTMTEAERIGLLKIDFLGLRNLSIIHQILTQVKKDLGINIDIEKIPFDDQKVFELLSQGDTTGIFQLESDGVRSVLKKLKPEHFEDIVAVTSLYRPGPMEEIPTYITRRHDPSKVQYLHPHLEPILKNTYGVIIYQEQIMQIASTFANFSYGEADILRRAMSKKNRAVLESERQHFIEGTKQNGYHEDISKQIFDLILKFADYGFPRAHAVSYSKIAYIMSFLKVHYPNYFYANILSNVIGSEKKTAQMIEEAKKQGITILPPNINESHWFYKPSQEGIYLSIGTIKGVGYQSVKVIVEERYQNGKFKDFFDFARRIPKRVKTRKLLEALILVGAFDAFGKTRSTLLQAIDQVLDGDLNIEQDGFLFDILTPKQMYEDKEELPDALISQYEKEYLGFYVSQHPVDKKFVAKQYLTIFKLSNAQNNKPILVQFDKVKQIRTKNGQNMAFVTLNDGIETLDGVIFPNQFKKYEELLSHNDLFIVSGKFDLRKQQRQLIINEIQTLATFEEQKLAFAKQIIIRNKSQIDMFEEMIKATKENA
DNA III Polymerase E, sequence (P10443 whole entry): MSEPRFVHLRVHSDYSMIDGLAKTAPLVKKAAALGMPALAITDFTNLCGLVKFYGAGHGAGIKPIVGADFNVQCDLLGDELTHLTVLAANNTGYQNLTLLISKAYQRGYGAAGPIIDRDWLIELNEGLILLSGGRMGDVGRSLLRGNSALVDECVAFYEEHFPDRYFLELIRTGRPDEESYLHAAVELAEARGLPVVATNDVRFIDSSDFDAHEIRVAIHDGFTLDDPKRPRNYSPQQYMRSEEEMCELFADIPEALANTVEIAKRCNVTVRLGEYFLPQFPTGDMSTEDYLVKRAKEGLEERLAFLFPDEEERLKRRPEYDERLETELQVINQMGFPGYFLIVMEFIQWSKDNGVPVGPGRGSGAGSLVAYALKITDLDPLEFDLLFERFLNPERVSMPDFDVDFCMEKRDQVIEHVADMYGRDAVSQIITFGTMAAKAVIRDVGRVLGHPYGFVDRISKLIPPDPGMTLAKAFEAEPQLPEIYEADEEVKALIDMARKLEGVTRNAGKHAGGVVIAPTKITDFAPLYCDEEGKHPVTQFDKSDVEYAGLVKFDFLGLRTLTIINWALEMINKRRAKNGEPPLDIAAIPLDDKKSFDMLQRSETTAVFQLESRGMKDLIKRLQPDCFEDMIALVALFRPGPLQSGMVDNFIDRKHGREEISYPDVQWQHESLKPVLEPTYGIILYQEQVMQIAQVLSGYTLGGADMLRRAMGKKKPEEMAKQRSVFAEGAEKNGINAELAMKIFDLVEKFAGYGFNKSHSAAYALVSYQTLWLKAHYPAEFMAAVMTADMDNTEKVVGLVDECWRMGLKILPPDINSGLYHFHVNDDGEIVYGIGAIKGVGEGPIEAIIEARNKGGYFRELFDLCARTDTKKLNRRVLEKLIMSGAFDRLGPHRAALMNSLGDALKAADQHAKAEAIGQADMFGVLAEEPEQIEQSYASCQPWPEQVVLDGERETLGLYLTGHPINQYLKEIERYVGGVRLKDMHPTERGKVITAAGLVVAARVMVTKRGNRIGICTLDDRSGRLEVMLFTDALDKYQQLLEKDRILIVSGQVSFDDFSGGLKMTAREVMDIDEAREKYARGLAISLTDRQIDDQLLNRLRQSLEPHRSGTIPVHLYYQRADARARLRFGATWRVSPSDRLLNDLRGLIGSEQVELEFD

In the case of `COC[C@@H]1[C@@H](O)[C@@H]2[C@H]3C=C[C@@H]4[C@@H](COC)C(=O)O[C@H]([C@H](O)COC)[C@H](C)/C=C(\C)[C@@]24O[C@H]3[C@@H]1OC(=O)c1cc(F)c[nH]1` [Compound 19, 8-O-4-Fluoro-1H-pyrrole-2′-carbonylbranimycin], the MIC in assay [1] is 0.5 µg/mL (≈ 0.842 µM); in [2], 64 µg/mL (≈ 108 µM); in assay [3], greater than 64 µg/mL; in assay [6] it was greater than 64 µg/mL; in assay [7] (setting [16]), 0.5 µg/mL; in assay [7] (setting [17]) it was 1 µg/mL. Besides, the MIC in assay [7] (setting [18]) was 0.5 µg/mL (≈ 0.842 µM); in assay [8], greater than 64 µg/mL; in the assay on S. aureus Sa4 NCTC 6571, 0.25 µg/mL (≈ 0.421 µM); in the assay with E. coli Ec1 ATCC 25922, greater than 64 µg/mL; in [10] it was 0.5 µg/mL (≈ 0.842 µM); in assay [11], greater than 64 µg/mL. The MIC with S. aureus Sa1 ATCC 13709 came out at 0.5 µg/mL (≈ 0.842 µM). Moreover, the Active entry in [4] (setting [13]) is listed as “Y”; in assay [5] (setting [15]) it was “Y”; in assay [5] (Study 6, 25 mg/kg PO QD, sample 72 h post infection, lung), “Y”. In addition, the “Log reduction vs. untreated” value in [4] (setting [13]) is given as −3.28. Also, in assay [5] (setting [14]), the log reduction at 50 mg/kg was 3.56. Besides, in [5] (Staphylococcus aureus, MRSA, in Mus musculus, po, 72 h, read-out: Log reduction vs. untreated, Study 6, 25 mg/kg PO QD, sample 72 h post infection, lung), the log reduction at 25 mg/kg is 3.65. The IC50 fell in the range of 1.68 to 16.8 µM at DNA III Polymerase E and 0.00168 to 1.68 µM in assay [9].
Take `COC[C@@H]1[C@@H](O)[C@@H]2[C@H]3C=C[C@@H]4[C@@H](COC)C(=O)O[C@H]([C@H](O)COC)[C@H](C)/C=C(\C)[C@@]24O[C@H]3[C@@H]1OC(=O)c1cc(Cl)c[nH]1` [Compound 28, 8-O-4-Chloro-1H-pyrrole-2′-carbonylbranimycin]: the MIC worked out at 1 µg/mL (≈ 1.64 µM) in assay [1]; 64 µg/mL (≈ 105 µM) in [2]; 64 µg/mL (≈ 105 µM) in assay [3]; 64 µg/mL (≈ 105 µM) in assay [6]; 4 µg/mL in assay [7] (setting [16]); 16 µg/mL in [7] (setting [17]). Further, the MIC was 4 µg/mL (≈ 6.56 µM) in [7] (setting [18]); 64 µg/mL (≈ 105 µM) in assay [8]; 4 µg/mL (≈ 6.56 µM) in the assay on S. aureus Sa4 NCTC 6571; greater than 64 µg/mL with E. coli Ec1 ATCC 25922; 4 µg/mL (≈ 6.56 µM) in [10]; greater than 64 µg/mL in assay [11]. The MIC with S. aureus Sa1 ATCC 13709 amounted to 2 µg/mL (≈ 3.28 µM). Besides, the log reduction at 50 mg/kg in assay [5] (setting [14]) came to 1.64. Further, the Active result in [5] (setting [15]) was “N”. In addition, the IC50 fell in the range of 1.64 to 16.4 µM on DNA III Polymerase E and 0.00164 to 1.64 µM in assay [9].
As to `C[C@H]1COc2c(N3CCN(C)CC3)c(F)cc3c(=O)c(C(=O)O)cn1c23` [Levofloxacin, reference compound], the Active entry is “N” in [12] (Study 2, 50 mg/kg PO BID); “N” in assay [5] (Study 1, 50 mg/kg PO BID, sample 24 h post infection, lung); “N” in assay [5] (Study 2, 50 mg/kg PO BID, sample 24 h post infection, lung); “N” in assay [5] (setting [15]). Also, in assay [12] (Study 2, 50 mg/kg PO BID), the “Log reduction vs. untreated” value is recorded as −1.00. The log reduction at 50 mg/kg is 0.32 in assay [5] (Staphylococcus aureus, MRSA, in Mus musculus, po, read-out: Log reduction vs. untreated, Study 1, 50 mg/kg PO BID, sample 24 h post infection, lung); 0.55 in [5] (Staphylococcus aureus, MRSA, in Mus musculus, po, read-out: Log reduction vs. untreated, Study 2, 50 mg/kg PO BID, sample 24 h post infection, lung); -1.17 in assay [5] (setting [14]).
In the case of `CN[C@H](CC(C)C)C(=O)N[C@H]1C(=O)N[C@@H](CC(N)=O)C(=O)N[C@H]2C(=O)N[C@H]3C(=O)N[C@H](C(=O)N[C@H](C(=O)O)c4cc(O)cc(O)c4-c4cc3ccc4O)[C@H](O)c3ccc(c(Cl)c3)Oc3cc2cc(c3O[C@@H]2O[C@H](CO)[C@@H](O)[C@H](O)[C@H]2O[C@H]2C[C@](C)(N)[C@H](O)[C@H](C)O2)Oc2ccc(cc2Cl)[C@H]1O` [Vancomycin], the Active entry in assay [12] (Study 1, 50 mg/kg SC BID) is given as “Y”; in assay [4] (setting [19]), “Y”; in [4] (setting [20]), “Y”; in [4] (setting [21]) it was “Y”; in assay [4] (setting [22]), “Y”; in assay [4] (setting [23]), “Y”. The Active result in assay [4] (setting [24]) is listed as “Y”; in assay [5] (Study 1, 50 mg/kg SC BID, sample 24 h post infection, lung), “Y”. The “Log reduction vs. untreated” value in assay [12] (Study 1, 50 mg/kg SC BID) is −3.59; in assay [4] (setting [19]), −4.01; in assay [4] (setting [20]), −2.57; in assay [4] (setting [21]), −1.52; in [4] (setting [22]), −3.96; in [4] (setting [23]) it was −4.27. Also, in assay [4] (setting [24]), the “Log reduction vs. untreated” value is −3.2. For the same compound, in [5] (Staphylococcus aureus, MRSA, in Mus musculus, sc, read-out: Log reduction vs. untreated), the log reduction at 50 mg/kg turned out to be 2.

Source of the values: patent US20160297830A1, “NOVEL COMPOUNDS USEFUL FOR THE TREATMENT OF BACTERIAL INFECTIOUS DISEASES” (GALAPAGOS NV, priority 2013, published 2016).
